# Assay results: patent publication US12296018B2, “Albumin binding peptide-drug (AlBiPeD) conjugates and methods of making and using same” (priority 2018, dated 2025)
# Several values for one entry are separate records, joined by “and”; a condition that tells them apart may be missing. Equal values may be shown once. Entries after “also recorded” stand apart in the source; their conditions may differ.
# Experiments:
# [1] = target: T1, mouse serum albumin (MSA) (Mus musculus, UniProt P07724); assay: Native-PAGE mobility shift with MSA; type: binding; details: 1:1 molar ratio
# T1 construct: purchased Sigma-Aldrich (St. Louis, MO)
# Protocol: (§1) The gel was stained with SimplyBlue stain according to the manufacturer's instructions and imaged using the Gel Doc imaging system (Bio-Rad, Hercules, CA). Isothermal titration calorimetry was done using a standard volume Nano ITC from TA instruments (Lindon, Utah). […] The calorimetric data were analyzed by NanoAnalyze software (TA instruments, Lindon, UT) and were fit to an independent binding site model to compute the thermodynamic parameters including dissociation constant (KD), binding stoichiometry (n), enthalpy (ΔH), and entropy (ΔS).
# [2] = pH-dependent Dox release from ABD-Dox conjugate (size exclusion HPLC); type: physicochemical
# Protocol: Drug release Dox release from the ABD-Dox conjugate was measured at pH 7.4 and 5.0, corresponding to the physiological pH and late endosomal pH, respectively. ABD-Dox in PBS (400 μM Dox Equiv.) was diluted with an equal volume of either 0.1 M Na—PO4, pH 7.4 buffer, 0.1 M Na-acetate, pH 5.0 buffer, incubated at 37° C. for 0, 0.25, 0.5, 1, 2, 4, 6, and 24 h, and neutralized using an equal volume of 0.1 M Na—PO4, pH 7.4 buffer. Samples were then analyzed by size exclusion HPLC using the same chromatography conditions as described above for the characterization of Dox conjugates and the percentage of released Dox was calculated by integrating the area under the peak corresponding to unbound Dox. The cumulative percent released Dox (F %, released) versus time was fit to a first order release model: F %, released=a[1−exp(−ln(2)t/t1/2)] where t is the time (h) after incubation, tia is the half-maximal release time (h), and a (%) is the maximum extent of drug release, using GraphPad Prism software (GraphPad, San Diego, CA).
# [3] = tested on: C26 colon carcinoma tumors; assay: In vivo tumor regression, syngeneic C26 model; parameters: species or system BALB/c mice
# Protocol: In vivo tumor regression For in vivo tumor implantation, C26 cells at 5×10^5 cells in 30 μL Minimum Essential Medium (MEM) (Invitrogen, Carlsbad, CA) and MIA PaCa-2 cells at 2×10^6 cells in 50 μL 10:90 v/v MEM: Matrigel matrix (Corning Inc, Corning, New York) were inoculated in the right flank of normal and athymic nude BALB/c mice, respectively. Tumor cells were allowed to grow until the tumor volume, calculated as π/6×length×width^2, reached 75-100 mm^3 for C26 tumors and 100-125 mm^3 for MIA PaCa-2 tumors. Tumor bearing mice were then treated with ABD-Dox at 10 and 20 mg Dox Equiv.kg^−1 BW, AlDox at 20 mg Dox Equiv.kg^−1 BW, and free Dox at 10 mgkg^−1 BW. Tumor volumes and body weights were monitored for 100 days after treatment and mice displaying excessive tumor volume (>[…]), body weight loss (>15%), or ill health were euthanized. Tumor growth and survival data were analyzed by GraphPad Prism software. Survival curves were generated with the Kaplan-Meier method and compared with the log-rank (Mantel-Cox) test. Tumor growth data were compared with a paired one-way ANOVA followed by Tukey-Kramer (Tukey's) post-hoc test. P<0.05 was considered as statistically significant.
# For in vivo tumor regression studies, a single dose of ABD-Dox was injected via tail vein at 10 mg Dox Equiv.kg^−1 BW (MTD of free Dox) and 20 mg Dox Equiv.kg^−1 BW (MTD of ABD-Dox) in separate cohorts of BALB/c mice with s.c. C26 tumors or nude mice with s.c. MIA Paca-2 tumors. Free Dox was injected at its MTD of 10 mgkg-1 BW, and AlDox was injected at 20 mg Dox Equiv.kg^−1 BW, a dose that was reported to be safe in previous studies. All animals were injected when the tumors were 75-100 mm; in size for C26 tumors and 100-125 mm^3 for MIA PaCa-2 tumors.
# [4] = target: T2, human serum albumin (HSA) (Homo sapiens, UniProt P02768); assay: Isothermal titration calorimetry of ABD-Dox with HSA; type: binding; details: ITC, 37° C., PBS
# T2 construct: purchased Sigma-Aldrich (St. Louis, MO)
# Protocol: as §1
# [5] = single dose 10 mg Dox Equiv.kg^−1 BW
# [6] = single dose 20 mg Dox Equiv.kg^−1 BW
# T1 sequence (P07724 25-608): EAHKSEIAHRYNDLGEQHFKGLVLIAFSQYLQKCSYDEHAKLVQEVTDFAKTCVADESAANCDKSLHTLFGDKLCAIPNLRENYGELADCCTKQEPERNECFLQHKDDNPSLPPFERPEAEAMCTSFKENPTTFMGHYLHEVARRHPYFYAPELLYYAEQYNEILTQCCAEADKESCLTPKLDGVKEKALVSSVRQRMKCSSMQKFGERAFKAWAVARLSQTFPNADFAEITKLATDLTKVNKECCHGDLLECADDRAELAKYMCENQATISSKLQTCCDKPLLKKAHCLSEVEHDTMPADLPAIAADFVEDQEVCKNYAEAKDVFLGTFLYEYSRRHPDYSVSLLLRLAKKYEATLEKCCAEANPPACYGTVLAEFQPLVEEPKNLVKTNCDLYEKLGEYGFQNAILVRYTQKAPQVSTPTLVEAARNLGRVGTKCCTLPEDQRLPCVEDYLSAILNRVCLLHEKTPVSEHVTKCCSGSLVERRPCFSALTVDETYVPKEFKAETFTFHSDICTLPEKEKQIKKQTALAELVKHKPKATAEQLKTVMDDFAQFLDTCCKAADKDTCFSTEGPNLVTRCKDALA
substance,measurement,setting,value
ABD-Dox (GLAEAKVLANRELDKYGVSDYYKNLINNAKTVEGVKALIDEILAALPCGGCGGCGGCGG),binding to MSA by mobility shift,[1],confirmed binding
same,drug released,"[2]; pH 5.0, over 24 h, 37° C.",about 70%
same,Dox release,"[2]; pH 7.4, 37° C.","negligible; also recorded: low, basal level of release"
same,tumor disappearance,[3]; 10 mg Dox Equiv.kg^−1 BW,complete tumor disappearance within 2 weeks
same,tumor recurrence in mice with eradicated tumors,[3]; 10 mg Dox Equiv.kg^−1 BW,33%
same,eradication of C26 tumors,[3]; 20 mg Dox Equiv.kg^−1 BW,incomplete eradication
same,mice that did not survive over the 100-day course of study,[3]; 20 mg Dox Equiv.kg^−1 BW,75%
same,recurrence of the primary tumor,[3]; 20 mg Dox Equiv.kg^−1 BW,without recurrence of the primary tumor in any mice
same,therapeutic efficacy vs AlDox in terms of overall survival,[3]; 20 mg Dox Equiv.kg^−1 BW,higher
same,therapeutic efficacy vs AlDox with respect to tumor regression,[3]; 20 mg Dox Equiv.kg^−1 BW,equivalent
same,survival compared with free Dox (10 mgkg^−1 BW),[3]; [5],superior efficacy
same,tumor regression compared with free Dox (10 mgkg^−1 BW),[3]; [5],superior efficacy
same,survival compared with free Dox (10 mgkg^−1 BW),[3]; [6],superior efficacy
same,tumor regression compared with free Dox (10 mgkg^−1 BW),[3]; [6],superior efficacy
same,ΔH,[4],-28.1 kJ/mol
same,ΔS,[4],41.5 Jmol^−1K^−1
same,n (binding stoichiometry),[4]; independent binding site model,1.03 and 1.0
